Experimental data reported in ChEMBL document CHEMBL3039007, “Structure-based identification of OATP1B1/3 inhibitors” (Mol Pharmacol, 2013).

Legend:
[1] = target: T1, Solute carrier organic anion transporter family member 1B1 (Homo sapiens, UniProt Q9Y6L6); details: chinese hamster, cho, 10 µM
T1 sequence (Q9Y6L6 whole entry): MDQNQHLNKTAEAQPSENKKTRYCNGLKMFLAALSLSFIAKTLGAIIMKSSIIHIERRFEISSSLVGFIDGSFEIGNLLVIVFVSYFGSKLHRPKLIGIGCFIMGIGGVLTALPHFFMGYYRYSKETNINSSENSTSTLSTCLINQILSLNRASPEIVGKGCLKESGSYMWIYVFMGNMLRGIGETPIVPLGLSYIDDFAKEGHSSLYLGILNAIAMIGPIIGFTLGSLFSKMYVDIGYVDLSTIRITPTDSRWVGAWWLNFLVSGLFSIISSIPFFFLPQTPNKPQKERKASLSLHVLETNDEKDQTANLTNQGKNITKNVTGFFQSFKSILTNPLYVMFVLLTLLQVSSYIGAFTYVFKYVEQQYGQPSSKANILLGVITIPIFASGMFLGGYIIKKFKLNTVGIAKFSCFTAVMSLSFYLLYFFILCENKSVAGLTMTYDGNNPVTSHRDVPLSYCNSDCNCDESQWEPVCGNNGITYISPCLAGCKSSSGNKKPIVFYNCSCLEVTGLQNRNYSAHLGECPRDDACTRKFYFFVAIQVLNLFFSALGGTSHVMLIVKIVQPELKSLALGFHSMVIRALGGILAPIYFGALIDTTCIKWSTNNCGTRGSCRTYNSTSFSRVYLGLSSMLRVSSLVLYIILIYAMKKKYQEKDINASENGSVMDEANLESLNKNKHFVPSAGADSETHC

[2] = target: T2, Solute carrier organic anion transporter family member 1B3 (Homo sapiens, UniProt Q9NPD5); details: chinese hamster, cho, 10 µM
T2 sequence (Q9NPD5 whole entry): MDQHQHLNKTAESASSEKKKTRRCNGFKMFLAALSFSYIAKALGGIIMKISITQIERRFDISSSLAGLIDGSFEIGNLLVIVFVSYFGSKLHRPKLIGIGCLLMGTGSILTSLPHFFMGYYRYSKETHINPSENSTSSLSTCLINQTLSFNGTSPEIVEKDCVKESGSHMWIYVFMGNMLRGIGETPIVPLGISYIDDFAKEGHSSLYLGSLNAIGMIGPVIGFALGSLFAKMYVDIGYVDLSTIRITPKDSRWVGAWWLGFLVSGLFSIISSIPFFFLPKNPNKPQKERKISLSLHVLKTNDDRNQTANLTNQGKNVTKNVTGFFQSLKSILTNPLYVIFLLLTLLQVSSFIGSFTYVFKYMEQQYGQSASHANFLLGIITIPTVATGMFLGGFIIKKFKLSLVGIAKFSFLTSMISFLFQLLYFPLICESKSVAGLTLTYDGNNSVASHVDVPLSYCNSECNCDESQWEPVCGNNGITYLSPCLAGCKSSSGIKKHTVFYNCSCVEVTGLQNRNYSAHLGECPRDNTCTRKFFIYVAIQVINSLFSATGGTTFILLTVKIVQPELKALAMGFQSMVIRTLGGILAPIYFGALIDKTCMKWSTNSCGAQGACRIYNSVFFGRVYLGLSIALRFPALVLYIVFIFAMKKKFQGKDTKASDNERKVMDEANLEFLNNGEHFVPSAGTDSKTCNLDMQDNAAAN

SMILES | residual activity [1] [%] | residual activity [2] [%]
COc1cc(OC)c(OC)cc1C=O | 48.71 | 59.17
Cl.OCCN1CCN(CCCN2c3ccccc3Sc3ccc(C(F)(F)F)cc32)CC1 | 153.1 | 93.03
COc1cccc(C=O)c1OC | 107.3 | 100.4
CC(=O)Oc1cc2c(c(C)c1OC(C)=O)CC1OC13[C@@]2(C)CC[C@@]1(C)C2C[C@](C)(C(=O)O)CC[C@]2(C)CC[C@]31C (stereo partly drawn) | 63.61 | 37.72
c1ccc2c(c1)cc1ccc3cccc4ccc2c1c34 | 74.44 | 70.45
NC[C@H]1O[C@H](O[C@H]2[C@H](O[C@@H]3O[C@H](CO)[C@@H](O)[C@H]3O)[C@@H](O)[C@H](N)C[C@@H]2N)[C@H](N)[C@@H](O)[C@@H]1O.O=S(=O)(O)O | 107.3 | 98.01
CC(=O)Oc1cc2c(c(C)c1OC(C)=O)CC=C1[C@]2(C)CC[C@]2(C)[C@@H]3C[C@](C)(C(=O)O)CC[C@]3(C)CC[C@@]12C | 47.56 | 13.7
C[C@@H]1C[C@H]2CC(=O)[C@H]3CCCN4CCCC2[C@]34C1.[O-][Cl+3]([O-])([O-])O (stereo partly drawn) | 104.6 | 106.7
COC(=O)CCC(=O)O[C@H]1CC[C@@]2(C)[C@@H](CC[C@@H]3[C@@H]2C(=O)[C@@H](O)[C@]2(C)C4C(C[C@@H]32)O[C@@]2(CCC(C)CO2)[C@H]4C)C1 (stereo partly drawn) | 131.1 | 83.53
C[C@H](C(=O)O)[C@H]1CC[C@H]2[C@@H]3CC=C4C[C@@H](O)CC[C@]4(C)[C@H]3CC[C@]12C | 71.16 | 83.58
CC(C)CCC[C@@H](C)[C@H]1CC[C@H]2[C@@H]3CC[C@H]4CCCC[C@]4(C)[C@H]3CC[C@]12C | 88.28 | 103.3
CC(C)CCC[C@@H](C)[C@H]1CC[C@H]2C3=CC[C@H]4C[C@@H](O)CC[C@]4(C)[C@H]3CC[C@]12C | 85.16 | 99.24
CC[C@H](/C=C/[C@@H](C)[C@H]1CC[C@H]2[C@@H]3CCC4=CC(=O)CC[C@]4(C)[C@H]3CC[C@]12C)C(C)C | 89.99 | 88.84
O=C1CC[C@]23/C=C/C(=O)NCCCCNCCCNC(=O)/C=C\c4ccc(c2c4)O[C@@H]3C1 | 70.42 | 100.4
CC(=O)O[C@H]1CC[C@]2(C)C3=C(CC[C@H]2C1(C)C)[C@]1(C)CC[C@H]([C@H](C)CCC=C(C)C)[C@@]1(C)CC3 | 54.67 | 93.79
C=C[C@@](C)(O)CC[C@H]1C(=C)C[C@H](O)[C@H]2C(C)(C)CCC[C@]12C | 48.6 | 78.26
CC[C@H](C)[C@@H](NC)C(=O)O | 122.8 | 105.9
O[C@@H]1[C@@H](O)[C@@H]2OC[C@@H](O2)[C@H]1O | 105.1 | 106
O=c1cccc2n1C[C@@H]1C[C@H]2CN2CCCC[C@H]12.[O-][Cl+3]([O-])([O-])O | 88.32 | 98.01
CC(=O)OCC(=O)[C@@]1(O)CC[C@H]2[C@@H]3CC[C@H]4CC(OC(C)=O)CC[C@]4(C)[C@H]3C(=O)C[C@@]21C (stereo partly drawn) | 99.36 | 97.61
CCC(C)C(=O)O[C@@H]1C[C@]2(C)[C@H](c3ccoc3)OC(=O)CC23OC2(C)OC34[C@H](OC(=O)C(C)C)[C@@]3(O)[C@@H](OC(=O)[C@]5(C)O[C@H]5C)[C@]5(C)C[C@@]3(O)[C@@](C)([C@H]5CC(=O)OC)C14O2 (stereo partly drawn) | -0.3887 | 0.6163
C[C@@H]([C@H]1OC(C)(C)[C@@H](O)[C@H]1O)[C@@H]1CC[C@]2(C)C3=CC[C@H]4C(C)(C)C(=O)CC[C@]4(C)[C@H]3CC[C@@]12C | 77.68 | 98.76
CC(=O)O[C@H]1CC[C@]2(C)[C@H]3CC[C@@H]4[C@@H]5CC(C)(C)CC[C@]5(C(=O)O)CC[C@@]4(C)[C@]3(C)CC[C@H]2C1(C)C | 112.3 | 103.7
O=C1CCC[C@@H]2[C@H]3C[C@@H](CN12)[C@@H]1CCCCN1C3.[O-][Cl+3]([O-])([O-])O | 115.5 | 104.5
CCCCCCCCCCCC[C@@H](C(=O)O)[C@H](C)C(=O)O | 76.63 | 61.85
CC(=O)O[C@H]1CC[C@@]2(C)[C@@H](CC[C@H]3[C@@H]4CC=C(C(C)=O)[C@@]4(C)C(=O)C[C@@H]32)C1 | 81.91 | 85.5
C[C@]12CC[C@H](Cl)C[C@@H]1CC[C@@H]1[C@@H]2CC[C@]2(C)C(=O)CC[C@@H]12 | 67.79 | 70.61
CC(=O)OCC1=C(C(=O)[O-])N2C(=O)[C@@H](NC(=O)CCC[C@@H](N)C(=O)O)[C@H]2SC1.[Na+] | 89.78 | 103.2
CN[C@H]1C[C@@H](N)[C@H](O)[C@@H](O[C@@H]2O[C@H](CO)[C@H](O)[C@H]3O[C@@]4(O[C@H]23)O[C@H]([C@H](N)CO)[C@H](O)[C@H](O)[C@H]4O)[C@@H]1O | 103.7 | 91.81

Continued, values first:

residual activity [1] [%] | residual activity [2] [%] | SMILES
83.77 | 76.5 | Cc1ccc(/C(=C\CN2CCCC2)c2ccccn2)cc1.Cl
89.48 | 105.8 | NC(Cc1c[nH]cn1)C(=O)Nc1ccc2ccccc2c1 (stereo not drawn)
146.4 | 70.51 | CN1CCN(CCCN2c3ccccc3Sc3ccc(C(F)(F)F)cc32)CC1.Cl
85.37 | 115 | COC(=O)[C@H](Cc1ccccc1)NC(=O)[C@@H](N)CC(=O)O
110.5 | 54.33 | C=N[C@@H](C(=O)N[C@@H]1C(=O)N2[C@@H]1SC(C)(C)[C@@H]2C(=O)[O-])c1ccccc1.[Na+]
68.86 | 88.12 | COC(=O)C[C@H]1C(C)(C)[C@]2(Cl)O[C@@]34CC2C(=O)[C@]1(C)C3CC[C@]1(C)C4=CC(=O)O[C@H]1c1ccoc1 (stereo partly drawn)
61.16 | 80.85 | CC(C)c1c(O)ccc2c1CCC1[C@@](C)(C(=O)O)CCC[C@]21C (stereo partly drawn)
80.54 | 97.89 | CC(=O)O[C@@H]1CC(=O)[C@]2(C)[C@H]3CC[C@@]4(C)[C@H](c5ccoc5)OC(=O)[C@H]5O[C@]54[C@]3(C)C(=O)C[C@H]2C1(C)C
67 | 105.3 | CC(=O)O[C@@H]1C[C@H]2C(C)(C)CCC(=O)[C@]2(C)[C@H]2CC[C@@]3(C)[C@H](c4ccoc4)OC(=O)[C@H]4O[C@]43[C@@]21C
32.74 | 97.12 | COC(=O)[C@H]1OC(=O)[C@H]2O[C@]23[C@]2(C)[C@H](CC[C@]13C)[C@]1(C)CCC(=O)C(C)(C)[C@@H]1C[C@H]2OC(C)=O
93.14 | 91.96 | CC(=O)N[C@H]1[C@H]([C@@H](O)[C@H](O)CO)O[C@@](O)(C(=O)O)C[C@@H]1O
55.59 | 71.26 | COc1ccc(/C=C/C(=O)Nc2ccccc2C(=O)O)cc1OC
84.54 | 88.13 | CC(=O)c1cc2c(cc1O)OC(C)(C)C=C2
94.19 | 100.9196 | CO[C@H]1C=C[C@@]23c4cc5c(cc4CN(C[C@@H]2O)[C@H]3C1)OCO5
78.63 | 69.61 | Nc1nc(N)c2nc(-c3ccccc3)c(N)nc2n1
